Laboratory results reported in US9765075B2, “Substituted bridged urea analogs as sirtuin modulators” (GLAXOSMITHKLINE LLC, priority 2013, dated 2017).
Numbering of substitutions follows the chain as printed. Structures can show the parent of a compound that is named as a salt.

Key:
Experiment in all cases: SIRT1 inhibition assay, OAcADPr mass spectrometry
Format in all cases: biochemical
full-length hSIRT1 E230K = target: T1, full-length hSIRT1 E230K (Homo sapiens, UniProt Q96EB6, E230K)
T1 construct: His6 (C); made in house
T1 sequence (Q96EB6 1-747 E230K): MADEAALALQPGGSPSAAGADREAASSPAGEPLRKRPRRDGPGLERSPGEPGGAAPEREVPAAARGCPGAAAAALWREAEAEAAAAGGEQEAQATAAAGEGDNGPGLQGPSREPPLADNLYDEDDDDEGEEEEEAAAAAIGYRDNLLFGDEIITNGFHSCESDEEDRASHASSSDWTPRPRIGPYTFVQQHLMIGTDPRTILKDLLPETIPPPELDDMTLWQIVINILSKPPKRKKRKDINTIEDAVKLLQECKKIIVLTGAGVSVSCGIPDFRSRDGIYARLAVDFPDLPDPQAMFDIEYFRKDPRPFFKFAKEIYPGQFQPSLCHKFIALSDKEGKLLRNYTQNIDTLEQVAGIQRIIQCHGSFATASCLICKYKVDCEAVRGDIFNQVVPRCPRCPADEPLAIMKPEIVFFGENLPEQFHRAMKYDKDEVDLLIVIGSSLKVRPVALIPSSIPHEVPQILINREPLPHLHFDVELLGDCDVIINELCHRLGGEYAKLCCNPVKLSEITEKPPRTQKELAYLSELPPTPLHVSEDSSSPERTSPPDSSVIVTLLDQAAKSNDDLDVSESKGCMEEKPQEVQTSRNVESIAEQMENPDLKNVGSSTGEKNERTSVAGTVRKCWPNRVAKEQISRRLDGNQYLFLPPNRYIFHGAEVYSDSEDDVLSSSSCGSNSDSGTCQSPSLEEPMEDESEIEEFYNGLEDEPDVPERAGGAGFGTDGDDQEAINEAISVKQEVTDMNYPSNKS
Experimental: (§1) SIRT1 activation and inhibition assays were run in reaction buffer with 0.05% BSA at 25° C. and analyzed using the OAcADPr assay. Enzyme and compound were pre-incubated for 20 minutes before addition of substrates.

[1] = target: T2, full-length hSIRT1 wild-type (Homo sapiens, UniProt Q96EB6)
T2 construct: Full-length human SIRT1 (hSIRT1) proteins were expressed with a C-terminal His6 tag; His6 (C); made in house
T2 sequence (Q96EB6 1-747): T1 sequence (Q96EB6 1-747 E230K) with K230E
Experimental: as §1

full-length hSIRT1 I223R = target: T3, full-length hSIRT1 I223R (Homo sapiens, UniProt Q96EB6, I223R)
T3 construct: made in house
T3 sequence (Q96EB6 1-747 I223R): T1 sequence (Q96EB6 1-747 E230K) with I223R, K230E
Experimental: as §1

## CCCC[C@H](NC(=O)[C@H](CC(C)C)NC(=O)[C@H](CCCCNC(=O)C(F)(F)F)NC(=O)[C@H](CCCCN)NC(=O)[C@H](Cc1c[nH]cn1)NC(=O)[C@H](CCCNC(=N)N)NC(C)=O)C(=O)N[C@@H](Cc1ccccc1)C(N)=O [TFA-p53 7-mer, Ac-RHK-K^TFA-L-Nle-F-NH2]
full-length hSIRT1 E230K
  IC50: 1.6 ± 0.3 µM
[1]
  IC50: 0.68 ± 0.07 µM
full-length hSIRT1 I223R
  IC50: 0.66 ± 0.06 µM
